Experimental data reported in US9440982B2 (Eolas Therapeutics, Inc., priority 2012, dated 2016).

Target: T1, CYP3A4 (Homo sapiens, UniProt P08684)
T1 construct: pre-incubated with human liver microsomes and NADPH; from tissue; host or cells: human liver microsomes
Test: Cytochrome P450 inhibition assay (midazolam hydroxylation)
Assay type: in vitro ADME
Conditions: human, human liver microsomes, probe midazolam (hydroxylation to 1′-hydroxymidazolam), 10 μM test compound, midazolam at approximately its Km
Outline: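 Human liver microsomes; CYP3A4 activity as midazolam 1′-hydroxylation with substrate near Km, with or without 10 μM test compound, read as percent inhibition. For time-dependent inhibition, parallel samples were preincubated 30 min with NADPH before substrate, and percent inhibition compared with non-preincubated samples.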

T1 sequence (P08684 whole entry): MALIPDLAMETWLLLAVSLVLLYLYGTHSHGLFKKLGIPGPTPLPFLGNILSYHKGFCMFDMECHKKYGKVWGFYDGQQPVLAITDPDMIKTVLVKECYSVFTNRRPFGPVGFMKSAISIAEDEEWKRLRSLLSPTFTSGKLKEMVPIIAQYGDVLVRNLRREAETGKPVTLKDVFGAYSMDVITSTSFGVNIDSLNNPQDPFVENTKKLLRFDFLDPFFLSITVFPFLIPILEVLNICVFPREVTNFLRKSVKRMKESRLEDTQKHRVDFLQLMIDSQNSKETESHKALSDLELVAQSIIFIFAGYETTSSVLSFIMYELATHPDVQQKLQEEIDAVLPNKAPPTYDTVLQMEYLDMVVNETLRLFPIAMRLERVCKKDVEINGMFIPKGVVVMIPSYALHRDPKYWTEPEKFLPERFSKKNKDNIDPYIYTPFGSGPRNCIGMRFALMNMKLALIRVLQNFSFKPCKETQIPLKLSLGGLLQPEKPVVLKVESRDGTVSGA

| inhibition at 10 µM | Structure (SMILES) |
| --- | --- |
| 81% | Cc1ccc(-n2nccn2)c(C(=O)N2CCC[C@@H](C)[C@H]2CNc2ncc(Cl)cc2F)c1 [Example A173, ((2S,3R)-2-(((5-Chloro-3-fluoropyridin-2-yl)amino)methyl)-3-methylpiperidin-1-yl)(5-methyl-2-(2H-1,2,3-triazol-2-yl)phenyl)methanone] |
| 64% | Cc1ccc(-n2nccn2)c(C(=O)N2CCC[C@@H](C)[C@H]2CNc2ccc(Cl)cn2)n1 [Example A178, ((2S,3R)-2-(((5-Chloropyridin-2-yl)amino)methyl)-3-methylpiperidin-1-yl)(6-methyl-3-(2H-1,2,3-triazol-2-yl)pyridin-2-yl)methanone] |
| 49% | Cc1ccc(-c2ncccn2)c(C(=O)N2CCC[C@@H](C)[C@H]2CNc2ccc(C(F)(F)F)cn2)n1 [Example A183, ((2S,3R)-3-Methyl-2-(((5-(trifluoromethyl)pyridin-2-yl)amino)methyl)piperidin-1-yl)(6-methyl-3-(pyrimidin-2-yl)pyridin-2-yl)methanone] |
| 44% | Cc1ccc(-n2nccn2)c(C(=O)N2CCC[C@@H](C)[C@H]2CNc2nnc(C(F)(F)F)s2)n1 [Example A191, ((2S,3R)-3-Methyl-2-(((5-(trifluoromethyl)-1,3,4-thiadiazol-2-yl)amino)methyl)piperidin-1-yl)(6-methyl-3-(2H-1,2,3-triazol-2-yl)pyridin-2-yl)methanone] |
| 45% | Cc1ccc(-n2nccn2)c(C(=O)N2CCC[C@@H](C)[C@H]2CNc2ncc(C#N)cc2F)n1 [Example A193, 5-Fluoro-6-((((2S,3R)-3-methyl-1-(6-methyl-3-(2H-1,2,3-triazol-2-yl)picolinoyl)piperidin-2-yl)methyl)amino)nicotinonitrile] |
| 50% | Cc1ccc(NC[C@@H]2[C@H](C)CCCN2C(=O)c2nc(C)ccc2-n2nccn2)nc1 [Example A196, ((2S,3R)-3-Methyl-2-(((5-methylpyridin-2-yl)amino)methyl)piperidin-1-yl)(6-methyl-3-(2H-1,2,3-triazol-2-yl)pyridin-2-yl)methanone] |
| 51% | Cc1ccc(-c2cccnn2)c(C(=O)N2CCC[C@@H](C)[C@H]2CNc2ncc(C(F)(F)F)cn2)c1 [Example A198, ((2S,3R)-3-Methyl-2-(((5-(trifluoromethyl)pyrimidin-2-yl)amino)methyl)piperidin-1-yl)(5-methyl-2-(pyridazin-3-yl)phenyl)methanone] |
| 44% | C[C@@H]1CCCN(C(=O)c2cc(F)ccc2-n2nccn2)[C@@H]1CNc1ncc(C(F)(F)F)cn1 [Example A207, (5-Fluoro-2-(2H-1,2,3-triazol-2-yl)phenyl)((2S,3R)-3-methyl-2-(((5-(trifluoromethyl)pyrimidin-2-yl)amino)methyl)piperidin-1-yl)methanone] |
| 76% | Cc1ccc(-n2nccn2)c(C(=O)N2CCC(F)(F)C[C@H]2CNc2ccc(Cl)cn2)c1 [Example A210, (S)-(2-(((5-Chloropyridin-2-yl)amino)methyl)-4,4-difluoropiperidin-1-yl)(5-methyl-2-(2H-1,2,3-triazol-2-yl)phenyl)methanone] |
| 60% | Cc1ccc(-n2nccn2)c(C(=O)N2CCC(F)(F)C[C@H]2CNc2ncc(C(F)(F)F)cn2)c1 [Example A211, (S)-(4,4-Difluoro-2-(((5-(trifluoromethyl)pyrimidin-2-yl)amino)methyl)piperidin-1-yl)(5-methyl-2-(2H-1,2,3-triazol-2-yl)phenyl)methanone] |
| 19% | Cc1ccc(-n2nccn2)c(C(=O)N2CCC[C@@H](C)[C@H]2CNc2cc(C)nc3nc(C)nn23)c1 [Example A213, ((2S,3R)-2-(((2,5-Dimethyl-[1,2,4]triazolo[1,5-a]pyrimidin-7-yl)amino)methyl)-3-methylpiperidin-1-yl)(5-methyl-2-(2H-1,2,3-triazol-2-yl)phenyl)methanone] |
| 69% | Cc1ccc(-n2nccn2)c(C(=O)N2CCC[C@@H](C)[C@H]2CNc2ncc3c(C)cccc3n2)c1 [Example A214, ((2S,3R)-3-Methyl-2-(((5-methylquinazolin-2-yl)amino)methyl)piperidin-1-yl)(5-methyl-2-(2H-1,2,3-triazol-2-yl)phenyl)methanone] |
| 67% | Cc1ccc(-n2nccn2)c(C(=O)N2CCC[C@@H](C)[C@H]2CNc2ncc3ccc(C)cc3n2)c1 [Example A215, ((2S,3R)-3-Methyl-2-(((7-methylquinazolin-2-yl)amino)methyl)piperidin-1-yl)(5-methyl-2-(2H-1,2,3-triazol-2-yl)phenyl)methanone] |
| 67% | Cc1ccc(-n2nccn2)c(C(=O)N2CCC[C@@H](C)[C@H]2CNc2ncc3ccccc3n2)c1 [Example A216, ((2S,3R)-3-Methyl-2-((quinazolin-2-ylamino)methyl)piperidin-1-yl)(5-methyl-2-(2H-1,2,3-triazol-2-yl)phenyl)methanone] |
| 60% | C[C@@H]1CCCN(C(=O)c2cc(F)ccc2-c2ncccn2)[C@@H]1CNc1ncc(Cl)cn1 [Example A226, ((2S,3R)-2-(((5-Chloropyrimidin-2-yl)amino)methyl)-3-methylpiperidin-1-yl)(5-fluoro-2-(pyrimidin-2-yl)phenyl) methanone] |
| 42% | C[C@@H]1CCCN(C(=O)c2c(F)cccc2-c2ncccn2)[C@@H]1CNc1ncc(C(F)(F)F)cn1 [Example A240, (2-Fluoro-6-(pyrimidin-2-yl)phenyl)((2S,3R)-3-methyl-2-(((5-(trifluoromethyl)pyrimidin-2-yl)amino)methyl)piperidin-1-yl)methanone] |
| 62% | C[C@@H]1CCCN(C(=O)c2c(F)cccc2-c2ncccn2)[C@@H]1CNc1ccc(C(F)(F)F)cn1 [Example A241, (2-Fluoro-6-(pyrimidin-2-yl)phenyl)((2S,3R)-3-methyl-2-(((5-(trifluoromethyl)pyridin-2-yl)amino)methyl)piperidin-1-yl)methanone] |
| 69% | C[C@@H]1CCCN(C(=O)c2cc(F)c(F)cc2-n2nccn2)[C@@H]1CNc1ccc(Cl)cn1 [Example A246, ((2S,3R)-2-(((5-Chloropyridin-2-yl)amino)methyl)-3-methylpiperidin-1-yl)(4,5-difluoro-2-(2H-1,2,3-triazol-2-yl)phenyl)methanone] |
| 52% | C[C@@H]1CCCN(C(=O)c2cccc(F)c2-n2nccn2)[C@@H]1CNc1ncc(C(F)(F)F)cn1 [Example A256, (3-Fluoro-2-(2H-1,2,3-triazol-2-yl)phenyl)((2S,3R)-3-methyl-2-(((5-(trifluoromethyl)pyrimidin-2-yl)amino)methyl)piperidin-1-yl)methanone] |
| 76% | Cc1cccc(C(=O)N2CCC[C@@H](C)[C@H]2CNc2ccc(C(F)(F)F)cn2)c1-n1nccn1 [Example A266, ((2S,3R)-3-Methyl-2-(((5-(trifluoromethyl)pyridin-2-yl)amino)methyl)piperidin-1-yl)(3-methyl-2-(2H-1,2,3-triazol-2-yl)phenyl)methanone] |
| 65% | Cc1cccc(C(=O)N2CCC[C@@H](C)[C@H]2CNc2ncc(C(F)(F)F)cn2)c1-n1nccn1 [Example A267, ((2S,3R)-3-Methyl-2-(((5-(trifluoromethyl)pyrimidin-2-yl)amino)methyl)piperidin-1-yl)(3-methyl-2-(2H-1,2,3-triazol-2-yl)phenyl)methanone] |
| 60% | Cc1cccc(C(=O)N2CCC[C@@H](C)[C@H]2CNc2ncc(Cl)cn2)c1-n1nccn1 [Example A268, ((2S,3R)-2-(((5-Chloropyrimidin-2-yl)amino)methyl)-3-methylpiperidin-1-yl)(3-methyl-2-(2H-1,2,3-triazol-2-yl)phenyl)methanone] |
| 51% | Cc1cccc(C(=O)N2CCC[C@@H](C)[C@H]2CNc2ncc(C(F)(F)F)cn2)c1-c1ncccn1 [Example A299, ((2S,3R)-3-Methyl-2-(((5-(trifluoromethyl)pyrimidin-2-yl)amino)methyl)piperidin-1-yl)(3-methyl-2-(pyrimidin-2-yl)phenyl)methanone] |
| 40% | Cc1ccc(-c2ncccn2)c(C(=O)N2CCC(F)(F)C[C@H]2CNc2ncc(C(F)(F)F)cn2)c1 [Example A312, (S)-(4,4-Difluoro-2-(((5-(trifluoromethyl)pyrimidin-2-yl)amino)methyl)piperidin-1-yl)(5-methyl-2-(pyrimidin-2-yl)phenyl)methanone] |
| 83% | Cc1cc(C(=O)N2CCC[C@@H](C)[C@H]2CNc2ccc(C(F)(F)F)cn2)c(-n2nccn2)cc1F [Example A368, (4-Fluoro-5-methyl-2-(2H-1,2,3-triazol-2-yl)phenyl)((2S,3R)-3-methyl-2-(((5-(trifluoromethyl)pyridin-2-yl)amino)methyl)piperidin-1-yl)methanone] |
| 76% | Cc1cc(F)c(-c2ncccn2)c(C(=O)N2CCC[C@@H](C)[C@H]2CNc2ccc(C(F)(F)F)cn2)c1 [Example A374, (3-fluoro-5-methyl-2-(pyrimidin-2-yl)phenyl)((2S,3R)-3-methyl-2-(((5-(trifluoromethyl)pyridin-2-yl)amino)methyl)piperidin-1-yl)methanone] |
